Structures can show the parent of a compound that is named as a salt. Where two headings read alike, the source gives them in different places. Marks after values point to notes of the source that are not given here.
Legend:
[1] = physchem; assay type: physicochemical
Text: Rivaroxaban represented by formula A was used as the comparison drug.

[2] = tested on: rat tail bleeding time; assay: Bleeding time (BT) in rat tail bleeding model; assay type: in vivo; conditions: for Prolongation of bleeding time (X-fold): rat tail, po
Experimental: Fasted, male Sprague-Dawley rats, weighed 200-240 g and aged approximately 7 weeks, were anesthetized by intraperitoneal injection of pentobarbital-Na (60 mg/kg). The FXa inhibitors or vehicle was given orally 60 min before the tails of anesthetized rats were transected 2 mm from the tip and vertically immersed in saline at 37° C. The time until continuous blood flow ceased for >30 s was measured, with a maximum observation time of 30 min (longer bleeding time were assigned a value of 30 min).

[3] = tested on: Citrated human and rat plasma; assay: Prothrombin time (PT), method using coagulometer; assay type: biochemical; conditions: concentration required to double the plasma clotting times, plasma species not given
Experimental: (§1) Effect of the oxazolidinone derivatives with cyclic amidoxime or cyclic amidrazone group represented by formula I of the present invention on blood coagulation was investigated by measuring prothrombin time (PT).
a) Method using coagulometer: Prothrombin time (PT) was measured with a Thrombotimer 4-channel coagulometer (Behnk Elektronik, Germany). Citrated human and rat plasma were used in the assays. For the PT measurement, 100 uL of freshly thawed plasma was mixed with 3 uL of serial dilution of test compound or DMSO. After 5 min incubation at 37° C., 200 uL of STA-Neoplastine (Diagnostica Stago, France) was added to start clot formation. Anticoagulant activity of the compounds was defined as the concentration required to double the plasma clotting times [2×PT (uM)]. Human plasma was obtained from Daejeon Red Cross Blood Center. […] Blood was collected into plastic tubes containing 1/10 volume of 3.8% sodium citrate. Plasma was obtained by immediate centrifugation at 2500 g for 10 min at 4° C., and stored at −70° C.

[4] = biological target: T1, human FXa (Homo sapiens, UniProt P00742); assay: Inhibitory activity against purified human FXa, chromogenic substrate S-2765; assay type: biochemical
T1 construct: purchased Enzyme Research Laboratories
Experimental: Human FXa was purchased from Enzyme Research Laboratories. 96-well microplate was purchased from Corning Life Sciences.
Inhibitory activity of the oxazolidinone derivatives with cyclic amidoxime or cyclic amidrazone group represented by formula I of the present invention against FXa was measured as follow.
The reaction was initiated by the addition of the substrate, and the absorbance was monitored continuously at 405 nm for 5 min using SpectraMax 190 (Molecular Devices, USA). The inhibitory constant (Ki) against human FXa was calculated according to the Cheng-Prusoff equation (Ki=IC50/1+[S]/Km), where [S] is the substrate concentration, and Km is the MichalisMenten constant. Km was determined from a Lineweaver-Burk plot. […] IC50 values were calculated using GraFit software version 5.0.12 (Erithacus Software Ltd., UK).

[5] = tested on: thrombus formation in rat AV-shunt; assay: Antithrombotic effect in arteriovenous shunt (AV-shunt) model in rats; assay type: in vivo; conditions: oral 60 min before shunt, dose not given
Experimental: Antithrombotic effect of the oxazolidinone derivatives with cyclic amidoxime or cyclic amidrazone group represented by formula I of the present invention was evaluated using arteriovenous (AV) shunt in rats. Fasted, male Sprague-Dawley rats, weighed 200-240 g and aged approximately 7 weeks, were anesthetized by intraperitoneal injection of urethane (1.25 g/kg) or chloral hydrate. An arteriovenous (AV) shunt in anesthetized rats was performed as described previously, with minor modification [Journal of Thrombosis and Haemostasis (2004) 3, 514]. The left common carotid artery and the right jugular vein were cannulated with two 200-mm-long, saline filled tubes (PE-50, Becton Dickinson, USA). The polyethylene tubes were connected through 8-mm-long silicone tubing (L/S® 13, MasterFlex, USA) with a 50-mm-long silicone tube (L/S® 16, MasterFlex, USA) containing a […]. The compound or vehicle was given orally 60 min before shunt was opened for 15 min. The cotton thread was then withdrawn and weighed. ED50 values were calculated by linear regression analysis using Excel 2003 (Microsoft®.

[6] = tested on: citrated plasma; assay: Prothrombin time (PT), method using spectramax; assay type: biochemical, human and rat; conditions: concentration required to double the plasma clotting times, absorbance 340 nm, plasma species not given
Experimental: as §1
b) Method using spectramax: The compound solution of serial dilution (5 uL) according to the present invention was mixed with citrated plasma (45 uL) followed by addition of STA-Neoplastine (Diagnostica Stago, France) after 5 min at 37° C. Absorbance at 340 nm was continuously monitored and the PT was determined as time (in seconds) when the absorbance at 340 nm reached 0.1. Anticoagulant activity of the compounds was defined as the concentration required to double the plasma clotting times [2×PT (uM)]. Human plasma was obtained from Daejeon Red Cross Blood Center. […] Blood was collected into plastic tubes containing 1/10 volume of 3.8% sodium citrate. Plasma was obtained by immediate centrifugation at 2500 g for 10 min at 4° C., and stored at −70° C.

[7] = asterisked values (chloral hydrate anesthetic)
[8] = values without asterisk (urethane anesthetic)
[9] = purified human FXa 2.6 nM, S-2765 300 uM, pH 7.8, 37° C., Cheng-Prusoff, Km 125 μM, read-out: Ki (nM), inhibition constant against human FXa

T1 sequence (P00742 235-488 limits assumed): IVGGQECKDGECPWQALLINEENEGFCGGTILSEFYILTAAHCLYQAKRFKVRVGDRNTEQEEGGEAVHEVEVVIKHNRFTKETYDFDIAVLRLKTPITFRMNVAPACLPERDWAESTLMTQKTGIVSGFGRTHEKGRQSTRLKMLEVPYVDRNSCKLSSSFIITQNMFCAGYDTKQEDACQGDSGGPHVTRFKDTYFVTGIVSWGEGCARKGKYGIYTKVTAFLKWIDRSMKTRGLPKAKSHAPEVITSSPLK
T1 sequence (P00742 41-179 partner limits assumed): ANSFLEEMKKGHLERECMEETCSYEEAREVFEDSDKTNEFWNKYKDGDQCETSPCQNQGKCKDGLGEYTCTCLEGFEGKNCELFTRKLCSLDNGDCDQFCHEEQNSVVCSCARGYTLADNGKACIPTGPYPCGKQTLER

Row | Compound | 2xPT (uM) Coagulometer [3] [µM] | Ki [4] [nM] | Inhibition of thrombus formation (%) [5, 7] | Inhibition of thrombus formation (%) [5, 8] [%] | 2xPT (uM) Spectramax [6] [µM] | Ki [4, 9] [nM] | further results
1 | CN1CCON=C1c1ccc(N2C[C@H](CNC(=O)c3ccc(Cl)s3)OC2=O)cc1 [100 (HCl salt)] | – | – | – | – | – | – | solubility ([1]; water, read-out: Aqueous Solubility): 12 mM; Prolongation of bleeding time (X-fold) ([2]; dose 5 mg/kg): 1.2 X-fold; Prolongation of bleeding time (X-fold) ([2]; dose 10 mg/kg): 0.9 X-fold
2 | CN1CCON=C1c1ccc(N2C[C@H](CNC(=O)c3ccc(Cl)s3)OC2=O)cc1 [100 (MSA salt)] | – | – | – | – | – | – | Aqueous Solubility [1]: >20 mM; Prolongation of bleeding time (X-fold) ([2]; dose 5 mg/kg): 1.1 X-fold; Prolongation of bleeding time (X-fold) ([2]; dose 10 mg/kg): 1.8 X-fold; Prolongation of bleeding time (X-fold) ([2]; dose 20 mg/kg): 5.1 X-fold
3 | O=C(NC[C@H]1CN(c2ccc(N3CCNC=N3)cc2)C(=O)O1)c1ccc(Cl)s1 [109 (MSA salt)] | – | – | – | – | – | – | Aqueous Solubility [1]: >20 mM; Prolongation of bleeding time (X-fold) ([2]; dose 2.5 mg/kg): 2.1 X-fold; Prolongation of bleeding time (X-fold) ([2]; dose 5 mg/kg): 3.8 X-fold; Prolongation of bleeding time (X-fold) ([2]; dose 10 mg/kg): 5.7 X-fold
4 | CN1CCON=C1c1ccc(N2C[C@H](CNC(=O)c3ccc(Cl)s3)OC2=O)cc1 [Compound 100] | 0.69 ± 0.07 | 7.11 | 58% | 65 | 0.25 | – | prolongation of bleeding time compared to the vehicle control ([2]; rat tail bleeding model, 10 mg/kg): did not prolonged bleeding time; Prolongation of bleeding time (X-fold) ([2]; dose 5 mg/kg): 0.9 X-fold
5 | O=C(NC[C@H]1CN(c2ccc(C3=NOCCN3)cc2)C(=O)O1)c1ccc(Cl)s1 [Compound 101] | – | 110 | – | 45 | 1.39 | – | –
6 | CCN1CCON=C1c1ccc(N2C[C@H](CNC(=O)c3ccc(Cl)s3)OC2=O)cc1 [Compound 102] | 1.76 | 8.91 | – | 61 | 0.77 | – | –
7 | O=C(NC[C@H]1CN(c2ccc(C3=NOCCN3C3CC3)cc2)C(=O)O1)c1ccc(Cl)s1 [Compound 103] | – | 53.3 | – | 24 | 1.10 | – | –
8 | CN1OCCN=C1c1ccc(N2C[C@H](CNC(=O)c3ccc(Cl)s3)OC2=O)cc1 [Compound 104] | – | – | – | 21 | 0.05 | 10 | –
9 | CCN1OCCN=C1c1ccc(N2C[C@H](CNC(=O)c3ccc(Cl)s3)OC2=O)cc1 [Compound 105] | 0.16 | – | – | 80 | 0.04 | 3.62 | –
10 | CCN1CCN(C)N=C1c1ccc(N2C[C@H](CNC(=O)c3ccc(Cl)s3)OC2=O)cc1 [Compound 106] | – | > 30 | – | – | 0.33 | – | –
11 | O=C(NC[C@H]1CN(c2ccc(C3=NCCN4C(=O)CCN34)cc2)C(=O)O1)c1ccc(Cl)s1 [Compound 108] | 1.00 | 15.8 | – | 52 | 0.35 | – | –
12 | O=C(NC[C@H]1CN(c2ccc(N3CCNC=N3)cc2)C(=O)O1)c1ccc(Cl)s1 [Compound 109-HCl] | – | – | – | – | – | – | Aqueous Solubility [1]: 6 mM
13 | O=C(NC[C@H]1CN(c2ccc(N3CCNC=N3)cc2)C(=O)O1)c1ccc(Cl)s1 [Compound 109] | 0.44 | 4.37 | 73% | 78 | 0.21 | – | Prolongation of bleeding time (X-fold) ([2]; dose 2.5 mg/kg): 2.5 X-fold; Prolongation of bleeding time (X-fold) ([2]; dose 5 mg/kg): 4.0 X-fold; Prolongation of bleeding time (X-fold) ([2]; dose 10 mg/kg): 4.1 X-fold
14 | CC1=NN(c2ccc(N3C[C@H](CNC(=O)c4ccc(Cl)s4)OC3=O)cc2)CCN1 [Compound 110] | 0.31 | – | 45* % | – | – | 2.07 | –
15 | CCC1=NN(c2ccc(N3C[C@H](CNC(=O)c4ccc(Cl)s4)OC3=O)cc2)CCN1 [Compound 111] | 0.40 | – | 17* % | – | – | 18.9 | –
16 | CN1C=NN(c2ccc(N3C[C@H](CNC(=O)c4ccc(Cl)s4)OC3=O)cc2)CC1 [Compound 112] | 4.26 | – | 44* % | – | – | 120 | –
17 | CC1=NN(c2ccc(N3C[C@H](CNC(=O)c4ccc(Cl)s4)OC3=O)cc2)CCN1C [Compound 113] | 0.62 | – | 12* % | – | – | 29.3 | –
18 | CN1C=NCCN1c1ccc(N2C[C@H](CNC(=O)c3ccc(Cl)s3)OC2=O)cc1 [Compound 114] | 0.50 | – | 5* % | – | – | 2.86 | –
19 | O=C(NC[C@H]1CN(c2ccc(N3C=NOCC3)cc2)C(=O)O1)c1ccc(Cl)s1 [Compound 115] | – | – | – | 29 | 1.49 | 84 | –
20 | CC1=NOCCN1c1ccc(N2C[C@H](CNC(=O)c3ccc(Cl)s3)OC2=O)cc1 [Compound 116] | 3.51 | – | – | 74 | 0.71 | 23.2 | –
21 | O=C(NC[C@H]1CN(c2ccc(N3CCON=C3C3CC3)cc2)C(=O)O1)c1ccc(Cl)s1 [Compound 117] | – | – | – | – | 2.2 | 101 | –
22 | O=CN1CCN(c2ccc(N3C[C@H](CNC(=O)c4ccc(Cl)s4)OC3=O)cc2)C=N1 [Compound 118] | 9.38 | – | – | 74 | 4.88 | 132 | –
23 | CC1=NN(C)CCN1c1ccc(N2C[C@H](CNC(=O)c3ccc(Cl)s3)OC2=O)cc1 [Compound 121] | 2.90 | – | – | 51 | 0.54 | 95.6 | –
